The assay concerns amphetamine-induced hyperlocomotion in male Sprague-Dawley rats. The experiment in a line: Amphetamine-induced hyperlocomotion in rats. The assay is classed as in vivo. The note with it: 10 mg/kg oral gavage, rat, amphetamine 0.75 mg/kg s.c. As for the experimental part: Drugs: d-Amphetamine hemisulfate was obtained from Sigma (St. Louis, MO). Salt-correction was used to determine the correct amount of the d-amphetamine hemisulfate form in milligrams to add to sterile water in order to yield a 0.75 mg/mL solution, which would be dosed at 1 mL/kg body weight of each animal. […] The solutions were formulated so that animals were injected with a volume equal to 10 mL/kg body weight for all compounds. The appropriate amount according to the dosage was mixed in 10% Tween 80 (Sigma) in sterile water. The mixtures were then vortexed and stored in a 39° C. sonication bath for 1 hour, until in a solution or microsuspension (depending on dose).
Animals: Male Sprague-Dawley rats weighing 239-300 grams and averaging 265 g (Harlan, Inc., Indianapolis, IN) were used. They were housed in the animal care facility certified by the American Association for the Accreditation of Laboratory Animal Care (AALAC) under a 12-hour light/dark cycle (lights on: 6 a.m.; lights off: 6 p.m.) and had free access to food and water. The animals used in this experiment were food-deprived the evening before experimentation for oral dosing of compound/vehicle. The experimental protocols performed during the light cycle were approved by the Institutional Animals Care and Use Committee of Vanderbilt University and conformed to the guidelines established by the National Research Council Guide for the Care and Use of Laboratory Animals.
Amphetamine-induced Hyperlocomotion: Male Harlan Sprague Dawley rats were habituated in Smart Open Field locomotor activity test chambers (Hamilton-Kinder, San Diego, CA) with 16×16 photo beams to automatically record locomotor activity. […] They were monitored for an additional 30 minutes and then injected subcutaneously with vehicle or 0.75 mg/kg amphetamine. Animals were then monitored for an additional 60 minutes, for a total of 120 minutes. Data were expressed as changes in ambulation defined as total number of beam breaks per 5 minute interval. Terminal brain and plasma samples were collected at the end of the study for pharmacokinetic analysis.
Data Analysis: Behavioral data were analyzed using a two-way ANOVA with main effects of treatment and time. Post hoc analysis was performed using a Dunnett's t-test with all treatment groups compared to the Vehicle/amphetamine group (VAMP) group using GraphPad Prism V.5.04 (GraphPad Software, San Diego, CA). Data were graphed using GraphPad Prism V.5.04 (GraphPad Software, San Diego, CA). A probability of p≤0.05 was taken as the level of statistical significance. In addition, the total number of beam breaks from the amphetamine administration (65 min) to the end of the study (120 min) was calculated and graphed. Percent Reversal was calculated as follows using Microsoft Excel: In each animal, total ambulation from t=65 to t=120 was summed. The mean of each sum was calculated in the VAMP group. Then, for each animal, Percent Reversal was calculated with the following formula: Percent Reversal=100−{[(total ambulation in each animal from t=65 to t=120)/(mean of each sum from t=65 to t=120 in VAMP group)]*100}. The mean Percent Reversal, as well as the standard error, was calculated for each dose group using GraphPad Prism V5.04.

As to `Cc1nnc2sc(C(=O)NCc3ccc(S(=O)(=O)C(F)(F)F)cc3)c(N)c2c1C` [VU0467154, reference compound], the “percent reversal of amphetamine-induced hyperlocomotion” value was found to be 56.2%.

Values taken from US12552790B2, “Positive modulators of the muscarinic acetylcholine receptor M4” (Vanderbilt University, priority 2023, dated 2026).
